Results published in US8362018B2, “Substituted imidazo[1,2-a]pyrazine compounds useful for the treatment of viral infections” (Biofocus DPI, Ltd., priority 2007, dated 2013).

Tests used:
[1] = cytotoxicity measurement (CC50), Table 13; assay type: cell-based; settings: human, Huh7 cells
[2] = system: HCV replicon; assay: anti-viral assay (EC50), Table 13; assay type: cell-based; settings: anti-viral assays
Text: The ability of a compound to inhibit HCV replication can be measured in vitro or using animal models using models and assays well known to those of skill in the art (e.g. Pietschmann et al, Clin Liver Dis. 7(1)c23-43, 2003). In vitro techniques for measuring the ability of a compound to inhibit HCV replication involve using HCV or an HCV replicon. Because HCV is difficult to grow in culture, particular in vitro techniques employ an HCV replicon.
An HCV replicon is an RNA molecule able to autonomously replicate in a cultured cell, such as Huh7. The HCV replicon expresses the HCV derived components of the replication machinery and contains cis-elements required for replication in a cultured cell. […]

[3] = system: Huh7; assay: cytotoxicity measurement (CC50), Table 13; assay type: cell-based
[4] = cytotoxicity CC50 in HeLa cells (Table 15); assay type: cell-based; settings: human, HRV-2 column
[5] = system: HeLa cells; assay: cytotoxicity CC50 in HeLa cells (Table 15); assay type: cell-based
[6] = system: HRV-2; assay: antiviral activity, HRV-2 in HeLa cells (Table 15); assay type: cell-based, human rhinoviruses (HRV); settings: Rhinovirus A, HRV2; HRV-2 (HeLa cells)
[7] = system: HRV clinical isolate; assay: antiviral activity, HRV clinical isolate in HeLa cells (Table 15); assay type: cell-based, human rhinoviruses (HRV); settings: Enterovirus
[8] = system: HRV-14; assay: antiviral activity, HRV-14 in HeLa cells (Table 15); assay type: cell-based, human rhinovirus 14 (HRV-14); settings: Rhinovirus B, HRV14; HRV-14 (HeLa cells)

Row | SMILES | CC50 [1] | EC50 ([2]; Hepatitis C virus) | further results
1 | NS(=O)(=O)c1ccc(CNc2nccn3c(-c4ccccc4)cnc23)cc1 [Compound 74] | < 35 µM | 1 to 20 µM | 
2 | NS(=O)(=O)c1ccc(CNc2nccn3c(-c4cccc(CO)c4)cnc23)cc1 [Compound 75] | < 35 µM | 1 to 20 µM | 
3 | Oc1cccc(-c2cnc3c(NCc4cccnc4)nccn23)c1 [Compound 76] | < 35 µM | 1 to 20 µM | 
4 | CS(=O)(=O)Nc1cccc(-c2cnc3c(NCc4cccnc4)nccn23)c1 [Compound 77] | < 35 µM | 1 to 20 µM | 
5 | COCCCNc1nccn2c(-c3ccc(OC)c(OC)c3)cnc12 [Compound 78] | < 35 µM | 1 to 20 µM | 
6 | OCc1ccc(-c2cnc3c(NCc4ccc(F)cc4)nccn23)cc1 [Compound 79] | < 35 µM | 1 to 20 µM | 
7 | Oc1cccc(-c2cnc3c(NCc4cccs4)nccn23)c1 [Compound 80] | < 35 µM | 1 to 20 µM | 
8 | OCc1ccc(-c2cnc3c(NCc4ccc5c(c4)OCO5)nccn23)cc1 [Compound 81] | < 35 µM | 1 to 20 µM | 
9 | Oc1ccc(Nc2nccn3c(-c4cccc(F)c4)cnc23)cc1 [Compound 82] | < 35 µM | 1 to 20 µM | 
10 | COc1ccc(CNc2nccn3c(-c4cccc(NS(C)(=O)=O)c4)cnc23)cc1 [Compound 83] | < 35 µM | 1 to 20 µM | 
11 | CC(=O)c1cccc(-c2cnc3c(NCCc4cccnc4)nccn23)c1 [Compound 84] | < 35 µM | 1 to 20 µM | 
12 | Oc1cccc(-c2cnc3c(NCCc4cccnc4)nccn23)c1 [Compound 85] | < 35 µM | 1 to 20 µM | 
13 | COc1ccccc1-c1cnc2c(NCc3ccc(S(N)(=O)=O)cc3)nccn12 [Compound 86] | < 35 µM | 1 to 20 µM | 
14 | CC(=O)Nc1cccc(-c2cnc3c(NCc4ccc(S(N)(=O)=O)cc4)nccn23)c1 [Compound 87] | < 35 µM | 1 to 20 µM | 
15 | Cc1cc(-c2cnc3c(NCc4ccc(S(N)(=O)=O)cc4)nccn23)ccc1O [Compound 88, 4-{[3-(4-Hydroxy-3-methyl-phenyl)-imidazo[1,2-a]pyrazin-8-ylamino]-methyl}-benzenesulfonamide] | > 35 µM | < 1 µM | 
16 | NS(=O)(=O)c1ccc(CNc2nccn3c(-c4ccc(O)c(O)c4)cnc23)cc1 [Compound 89] | > 35 µM | > 20 µM | 
17 | NS(=O)(=O)c1ccc(CNc2nccn3c(-c4ccc(O)cc4F)cnc23)cc1 [Compound 91, 4-{[3-(2-Fluoro-4-hydroxy-phenyl)-imidazo[1,2-a]pyrazin-8-ylamino]-methyl}-benzenesulfonamide] | > 35 µM | < 1 µM | 
18 | COc1ccc(-c2cnc3c(NCc4ccc(C(=O)O)cc4)nccn23)cc1OC [Compound 92, 4-{[3-(3,4-Dimethoxy-phenyl)-imidazo[1,2-a]pyrazin-8-ylamino]-methyl}-benzoic acid] | > 35 µM | 1 to 20 µM | 
19 | COc1ccc(-c2cnc3c(NCc4ccc(CO)cc4)nccn23)cc1OC [Compound 93, (4-{[3-(3,4-Dimethoxy-phenyl)-imidazol[1,2-a]pyrazin-8-ylamino]-methyl}-phenyl)-methanol] | > 35 µM | 1 to 20 µM | 
20 | NC(=O)c1cc(-c2cnc3c(NCc4ccc(S(N)(=O)=O)cc4)nccn23)ccc1O [Compound 94, 2-Hydroxy-5-[8-(4-sulfamoyl-benzylamino)-imidazo[1,2-a]pyrazin-3-yl]-benzamide] | > 35 µM | 1 to 20 µM | 

Row | SMILES | CC50 [1] | EC50 ([2]; Hepatitis C virus) | further results
21 | NS(=O)(=O)c1cccc(CNc2nccn3c(-c4ccc(O)cc4)cnc23)c1 [Compound 95, 3-{[3-(4-Hydroxy-phenyl)-imidazol[1,2-a]pyrazin-8-ylamino]-methyl}-benzenesulfonamide] |  |  | CC50 [3]: < 35 µM; EC50 [2]: 1 to 20 µM
22 | Oc1ccc(-c2cnc3c(Nc4ccccc4)nccn23)cc1 [Compound 96] | > 35 µM | > 20 µM | 
23 | COc1ccc(-c2cnc3c(NCc4ccc(Cl)cc4)nccn23)cc1OC [Compound 97] | < 35 µM | 1 to 20 µM | 
24 | CC(C)(C)c1ccc(CNc2nccn3c(-c4ccc(O)cc4)cnc23)cc1 [Compound 98] | < 35 µM | 1 to 20 µM | 
25 | Oc1ccc(-c2cnc3c(NCc4cccc(Cl)c4)nccn23)cc1 [Compound 99] | < 35 µM | 1 to 20 µM | 
26 | CNS(=O)(=O)c1ccc(CNc2nccn3c(-c4ccc(OC)cc4)cnc23)cc1 [Compound 100] | > 35 µM | 1 to 20 µM | 
27 | CCNS(=O)(=O)c1ccc(CNc2nccn3c(-c4ccc(OC)cc4)cnc23)cc1 [Compound 101] | > 35 µM | 1 to 20 µM | 
28 | CCNS(=O)(=O)c1ccc(CNc2nccn3c(-c4ccc(O)cc4)cnc23)cc1 [Compound 102] | > 35 µM | 1 to 20 µM | 
29 | CNS(=O)(=O)c1ccc(CNc2nccn3c(-c4ccc(O)cc4)cnc23)cc1 [Compound 103] | > 35 µM | 1 to 20 µM | 
30 | Cc1nc2c(NCc3ccc(S(N)(=O)=O)cc3)nccn2c1-c1ccc(O)cc1 [Compound 104, 4-{[3-(4-Hydroxy-phenyl)-2-methyl-imidazo[1,2-a]pyrazin-8-ylamino]-methyl}-benzenesulfonamide] | > 35 µM | 1 to 20 µM | 
31 | COc1cc(-c2c(C)nc3c(NCc4ccc(S(N)(=O)=O)cc4)nccn23)ccc1O [Compound 105] | > 35 µM | < 1 µM | 
32 | Cc1nc2c(NCc3ccc(S(N)(=O)=O)cc3)nccn2c1-c1ccc(O)c(F)c1 [Compound 106] | > 35 µM | < 1 µM | CC50 [4]: > 35 µg/mL; CC50(μg/mL) ([5]; HRV clinical isolate column): * (>35 μg/mL); CC50(μg/mL) ([5]; HRV-14 column): * (>35 μg/mL); EC50 [6]: < 1 µg/mL; EC50 [7]: < 1 µg/mL; EC50 [8]: < 1 µg/mL
33 | Cc1nc2c(NCc3ccc(S(N)(=O)=O)cc3)nccn2c1-c1ccc(O)c([N+](=O)[O-])c1 [Compound 107] | > 35 µM | 1 to 20 µM | 
34 | Cc1cnc(NCc2ccc(S(N)(=O)=O)cc2)c2ncc(-c3ccc(O)cc3)n12 [Compound 108, 4-{[3-(4-Hydroxy-phenyl)-5-methyl-imidazo[1,2-a]pyrazin-8-ylamino]-methyl}-benzenesulfonamide] | < 35 µM | < 1 µM | 
35 | COc1cc(-c2cnc3c(NCc4ccc(S(N)(=O)=O)cc4)ncc(C)n23)ccc1O [Compound 109] | < 35 µM | < 1 µM | 
36 | Cc1cn2c(-c3ccc(O)cc3)cnc2c(NCc2ccc(S(N)(=O)=O)cc2)n1 [Compound 110, 4-{[3-(4-Hydroxy-phenyl)-6-methyl-imidazo[1,2-a]pyrazin-8-ylamino]-methyl}-benzenesulfonamide] | < 35 µM | < 1 µM | 
37 | Cc1cn2c(-c3ccc(O)c(F)c3)cnc2c(NCc2ccc(S(N)(=O)=O)cc2)n1 [Compound 111] | > 35 µM | < 1 µM | 
38 | COc1cc(-c2cnc3c(NCc4ccc(S(N)(=O)=O)cc4)nc(C)cn23)ccc1O [Compound 112] | < 35 µM | < 1 µM | 
39 | NS(=O)(=O)c1ccc(CNc2nc(Br)cn3c(Br)cnc23)cc1 [Compound 113, 4-[(3,6-Dibromo-imidazo[1,2-a]pyrazin-8-ylamino)-methyl]-benzenesulfonamide] | > 35 µM | > 20 µM | 
40 | NS(=O)(=O)c1ccc(CNc2nc(-c3ccc(O)cc3)cn3c(-c4ccc(O)cc4)cnc23)cc1 [Compound 114, 4-{[3,6-Bis-(4-hydroxy-phenyl)-imidazo[1,2-a]pyrazin-8-ylamino]-methyl}-benzenesulfonamide] | < 35 µM | < 1 µM | 
